Measurements from ChEMBL document CHEMBL1201862, “PubChem BioAssay data set” (2004).
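These data come from cells grown in 96-well plates and exposed to compound for 48 hours at five concentrations. GI50 = concentration required for 50% inhibition of growth.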 The source made the active and inactive calls. Cut-off read from the data, not from the text of the source: active = GI50 up to about 1.1 µM and inactive = higher.

Columns and labels:
Assay in all cases: NCI-60 cell line screen, 48 h
786-0 = tested on: 786-0
A549 = tested on: A549
ACHN = tested on: ACHN
CAKI-1 = tested on: CAKI-1
CCRF-CEM = tested on: CCRF-CEM
COLO 205 = tested on: COLO 205
HCC 2998 = tested on: HCC 2998
HCT-116 = tested on: HCT-116
HOP-62 = tested on: HOP-62
LOX IMVI = tested on: LOX IMVI
MOLT-4 = tested on: MOLT-4
NCI-H522 = tested on: NCI-H522
OVCAR-5 = tested on: OVCAR-5
RXF 393 = tested on: RXF 393
SK-MEL-28 = tested on: SK-MEL-28
SK-MEL-2 = tested on: SK-MEL-2
SW-620 = tested on: SW-620
UACC-257 = tested on: UACC-257
TK-10 = tested on: TK-10
MDA-MB-435 = tested on: MDA-MB-435

Measured: GI50

CCNC(=O)COc1ccc(Br)cc1Br
inactive: 786-0 > 100 µM | A549 > 100 µM | ACHN > 100 µM | CAKI-1 > 100 µM | CCRF-CEM > 100 µM | COLO 205 > 100 µM | HCC 2998 > 100 µM | HCT-116 > 100 µM | HOP-62 > 100 µM | LOX IMVI > 100 µM | MOLT-4 > 100 µM | NCI-H522 > 100 µM | OVCAR-5 > 100 µM | RXF 393 > 100 µM | SK-MEL-28 > 100 µM | SK-MEL-2 42.9 µM | SW-620 > 100 µM | UACC-257 > 100 µM

Cc1cccc(C)c1NC(=O)C(=O)CC(=O)CO
inactive: 786-0 > 100 µM | A549 > 100 µM | ACHN > 100 µM | CAKI-1 > 100 µM | CCRF-CEM > 100 µM | COLO 205 > 100 µM | HCC 2998 > 100 µM | HCT-116 > 100 µM | HOP-62 > 100 µM | LOX IMVI > 100 µM | MOLT-4 > 100 µM | NCI-H522 > 100 µM | OVCAR-5 > 100 µM | RXF 393 > 100 µM | SK-MEL-28 > 100 µM | SK-MEL-2 > 100 µM | SW-620 > 100 µM | TK-10 > 100 µM | UACC-257 > 100 µM

Nc1ccc(N)c2c1C(=O)c1c(N)ccc(N)c1C2=O
inactive: 786-0 36.9 µM | A549 62.7 µM | ACHN 27.5 µM | CAKI-1 49.9 µM | CCRF-CEM 23.8 µM | COLO 205 58.6 µM | HCC 2998 39.6 µM | HCT-116 > 73.3 µM | HOP-62 78.2 µM | LOX IMVI > 31.6 µM | MOLT-4 25.9 µM | NCI-H522 27.5 µM | OVCAR-5 > 100 µM | RXF 393 35 µM | SK-MEL-28 98.6 µM | SK-MEL-2 > 84.7 µM | SW-620 52.6 µM | TK-10 > 59.3 µM | UACC-257 > 87.1 µM

CCCCNC(=S)N/N=C/c1cccc(C)n1
inactive: 786-0 35.2 µM | A549 32.4 µM | ACHN 23 µM | CAKI-1 33.9 µM | CCRF-CEM 6.9 µM | COLO 205 33.7 µM | HCT-116 20.7 µM | HOP-62 23.9 µM | LOX IMVI 34.9 µM | MDA-MB-435 42.2 µM | MOLT-4 10.7 µM | NCI-H522 18.6 µM | OVCAR-5 43.2 µM | SK-MEL-28 48.5 µM | SW-620 49.1 µM | TK-10 29.7 µM | UACC-257 37.8 µM

N#CC1(c2nc3ccccc3o2)C(=O)C(=O)N(c2ccc(Cl)c(Cl)c2)C(=O)C1=O
inactive: 786-0 > 100 µM | A549 > 100 µM | ACHN > 100 µM | CAKI-1 > 100 µM | CCRF-CEM 48 µM | COLO 205 > 100 µM | HCC 2998 > 100 µM | HOP-62 > 100 µM | LOX IMVI > 100 µM | MOLT-4 30.3 µM | NCI-H522 > 100 µM | OVCAR-5 > 100 µM | RXF 393 > 100 µM | SK-MEL-28 > 100 µM | SK-MEL-2 > 100 µM | SW-620 > 100 µM | TK-10 > 100 µM | UACC-257 > 100 µM

COc1cc(C)c(C)c(OC(=O)c2c(C)c(C)c(OC)c(C)c2OC)c1C
inactive: 786-0 12.3 µM | A549 4.11 µM | ACHN 13.4 µM | CAKI-1 7.26 µM | CCRF-CEM 13.2 µM | COLO 205 3.18 µM | HCC 2998 13.8 µM | HCT-116 4.1 µM | HOP-62 15 µM | LOX IMVI 4.75 µM | MOLT-4 9.31 µM | NCI-H522 1.9 µM | OVCAR-5 28.8 µM | RXF 393 13 µM | SK-MEL-28 20.4 µM | SK-MEL-2 5.04 µM | SW-620 3.86 µM | TK-10 25.6 µM | UACC-257 17.8 µM

N#CC12CCC(O)C(CC1)C2=O (centres undefined)
inactive: 786-0 > 100 µM | A549 > 100 µM | ACHN > 100 µM | CAKI-1 > 100 µM | CCRF-CEM > 100 µM | COLO 205 87.9 µM | HCC 2998 > 100 µM | HCT-116 73.1 µM | HOP-62 > 100 µM | LOX IMVI 21.5 µM | MOLT-4 > 100 µM | NCI-H522 > 100 µM | OVCAR-5 > 100 µM | RXF 393 > 100 µM | SK-MEL-28 > 100 µM | SK-MEL-2 > 100 µM | TK-10 > 100 µM | UACC-257 > 100 µM

Cn1nc(-c2ccccc2)c2c(/C=C/c3ccccc3)onc2c1=O
inactive: 786-0 33 µM | A549 > 100 µM | ACHN > 100 µM | CAKI-1 69 µM | CCRF-CEM > 100 µM | COLO 205 > 100 µM | HCC 2998 83.6 µM | HCT-116 > 100 µM | HOP-62 41.8 µM | LOX IMVI > 100 µM | MOLT-4 > 100 µM | NCI-H522 37.3 µM | OVCAR-5 > 100 µM | RXF 393 46.1 µM | SK-MEL-28 > 100 µM | SK-MEL-2 > 100 µM | TK-10 > 100 µM | UACC-257 > 100 µM

CC(=O)C1C(=O)C(=O)N(c2ccccc2N2C(=O)C(=O)C(C(C)=O)C2=O)C1=O (centres undefined)
inactive: 786-0 > 100 µM | A549 > 100 µM | ACHN > 100 µM | CAKI-1 > 100 µM | CCRF-CEM > 100 µM | COLO 205 > 100 µM | HCC 2998 > 100 µM | HCT-116 > 100 µM | HOP-62 > 100 µM | LOX IMVI > 100 µM | MOLT-4 > 100 µM | NCI-H522 > 100 µM | OVCAR-5 > 100 µM | RXF 393 > 100 µM | SK-MEL-28 > 100 µM | SK-MEL-2 > 100 µM | SW-620 > 100 µM | TK-10 > 100 µM | UACC-257 > 100 µM

COCN(C)c1nc(N(C)C)nc(N(C)C)n1
inactive: 786-0 > 100 µM | A549 > 100 µM | ACHN > 100 µM | CAKI-1 > 100 µM | CCRF-CEM > 100 µM | COLO 205 > 100 µM | HCC 2998 > 100 µM | HCT-116 > 100 µM | HOP-62 > 100 µM | LOX IMVI > 100 µM | MOLT-4 > 100 µM | NCI-H522 9.06 µM | OVCAR-5 > 100 µM | RXF 393 40.3 µM | SK-MEL-28 > 100 µM | SK-MEL-2 > 100 µM | SW-620 > 100 µM | TK-10 > 100 µM | UACC-257 > 100 µM

CC(=O)Nc1ccc(/C=C/C(=O)c2sc(-n3nc(-c4ccccc4)cc3-c3ccccc3)nc2C)cc1
inactive: 786-0 > 10 µM | A549 > 10 µM | ACHN > 10 µM | CAKI-1 > 10 µM | CCRF-CEM > 10 µM | COLO 205 > 10 µM | HCC 2998 > 10 µM | HCT-116 > 10 µM | HOP-62 > 10 µM | LOX IMVI > 10 µM | MOLT-4 > 10 µM | NCI-H522 35.9 µM | OVCAR-5 > 10 µM | RXF 393 > 10 µM | SK-MEL-28 > 10 µM | SK-MEL-2 > 10 µM | SW-620 > 10 µM | TK-10 > 10 µM | UACC-257 80.9 µM

C=CCC12CC(=O)CCC1c1ccc(OC)cc1C2=O (centres undefined)
inactive: 786-0 > 100 µM | A549 > 100 µM | ACHN > 100 µM | CAKI-1 > 100 µM | CCRF-CEM > 100 µM | COLO 205 > 100 µM | HCC 2998 > 100 µM | HCT-116 > 100 µM | HOP-62 > 100 µM | LOX IMVI > 100 µM | MOLT-4 > 100 µM | NCI-H522 > 100 µM | OVCAR-5 > 100 µM | RXF 393 > 100 µM | SK-MEL-28 > 100 µM | SK-MEL-2 > 100 µM | SW-620 > 100 µM | TK-10 > 100 µM | UACC-257 > 100 µM

Cc1c(Cl)ccc2c1NC(=O)C2(O)CC(=O)c1ccc(Cl)cc1 (centres undefined)
inactive: 786-0 47.1 µM | A549 > 100 µM | ACHN > 100 µM | CAKI-1 > 71.9 µM | CCRF-CEM 14.5 µM | COLO 205 32.4 µM | HCC 2998 > 42 µM | HCT-116 27.5 µM | HOP-62 97.3 µM | LOX IMVI 19.7 µM | MOLT-4 17.7 µM | NCI-H522 > 61.5 µM | OVCAR-5 > 100 µM | RXF 393 31.2 µM | SK-MEL-28 > 94.4 µM | SK-MEL-2 > 46 µM | SW-620 29.9 µM | TK-10 > 100 µM | UACC-257 23.7 µM

CCOC(=O)N[C@@H]1C2CC(=O)C(O2)[C@@H]1OC (some centres undefined)
inactive: 786-0 > 100 µM | A549 > 100 µM | ACHN > 100 µM | CAKI-1 > 100 µM | CCRF-CEM > 100 µM | COLO 205 > 100 µM | HCC 2998 > 100 µM | HCT-116 > 100 µM | HOP-62 > 100 µM | LOX IMVI > 100 µM | MOLT-4 > 100 µM | NCI-H522 > 100 µM | OVCAR-5 > 100 µM | RXF 393 > 100 µM | SK-MEL-28 7.08 µM | SK-MEL-2 > 100 µM | SW-620 > 100 µM | TK-10 > 100 µM | UACC-257 > 100 µM

COC(=O)C(=O)C1CCCCC(C2=NC3NN=C(N)N3C2=O)C1=O (centres undefined)
inactive: 786-0 > 100 µM | A549 > 100 µM | ACHN > 100 µM | CAKI-1 > 100 µM | CCRF-CEM > 100 µM | COLO 205 > 100 µM | HCC 2998 > 100 µM | HCT-116 > 100 µM | HOP-62 > 100 µM | LOX IMVI > 100 µM | MOLT-4 > 100 µM | NCI-H522 > 100 µM | OVCAR-5 > 100 µM | RXF 393 63 µM | SK-MEL-28 > 100 µM | SK-MEL-2 > 100 µM | SW-620 > 100 µM | TK-10 > 100 µM | UACC-257 > 100 µM
